Assay results published in patent US7723329B2, “Substituted-3-sulfonylindazole derivatives as 5-hydroxytryptamine-6 ligands” (Wyeth LLC, priority 2005, dated 2010).
Structures can show the parent of a compound that is named as a salt.

What was measured:
[1] = biological target: T1, human cloned 5-HT6 receptors (Homo sapiens, UniProt P50406); experiment: 5-HT6 binding affinity, [3H]-LSD displacement; settings: membranes of Hela cells expressing human cloned 5-HT6 receptors; [3H]-LSD 3.0 nM; 120 minutes at room temperature
T1 construct: expressed in transfected cells; host or cells: HeLa cells
T1 sequence (P50406 whole entry): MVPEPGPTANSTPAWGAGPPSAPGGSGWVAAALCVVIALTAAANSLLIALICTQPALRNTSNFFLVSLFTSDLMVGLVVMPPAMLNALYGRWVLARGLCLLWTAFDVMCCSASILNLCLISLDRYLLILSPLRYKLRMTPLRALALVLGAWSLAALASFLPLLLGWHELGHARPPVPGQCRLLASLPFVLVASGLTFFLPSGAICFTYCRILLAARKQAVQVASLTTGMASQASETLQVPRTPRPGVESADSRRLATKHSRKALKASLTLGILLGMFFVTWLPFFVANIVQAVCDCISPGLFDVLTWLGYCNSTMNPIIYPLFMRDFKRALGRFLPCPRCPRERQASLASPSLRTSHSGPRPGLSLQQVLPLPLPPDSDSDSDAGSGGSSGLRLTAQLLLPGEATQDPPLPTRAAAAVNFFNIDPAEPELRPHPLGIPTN

melting point	Ki [1]	Structure (SMILES)
> 200 °C		CN1CCN(Cc2ccc3[nH]nc(S(=O)(=O)c4cccc5ccccc45)c3c2)CC1 (as salt: HCl) [Example 196]
272 to 274 °C (dec.)		CNCCOc1ccc2c(c1)c(S(=O)(=O)c1cccc3ccccc13)nn2C (as salt: hydrochloride) [Example 40, Methyl-{2-[1-methyl-3-(naphthalene-1-sulfonyl)-1H-indazol-5-yloxy]-ethyl}-amine]
108 to 110 °C		CN(C)CCc1ccc2[nH]nc(S(=O)(=O)c3ccccc3)c2c1 (as salt: hydrochloride) [Example 176, N,N-Dimethyl-N-{2-[3-(phenylsulfonyl)-1H-indazol-5-yl]ethyl}amine hydrochloride]
> 200 °C		N[C@@H]1CCN(Cc2ccc3[nH]nc(S(=O)(=O)c4cccc5ccccc45)c3c2)C1 (as salt: HCl) [Example 201]
274 to 276 °C (dec.)		CC(C)NCCOc1ccc2c(c1)c(S(=O)(=O)c1cccc3ccccc13)nn2C (as salt: hydrochloride) [Example 45, Isopropyl-{2-[1-methyl-3-(naphthalene-1-sulfonyl)-1H-indazol-5-yloxy]-ethyl}-amine]
247 to 248 °C		CN(C)CCCc1ccc2[nH]nc(S(=O)(=O)c3cccc4ccccc34)c2c1 (as salt: hydrochloride) [Example 182, N,N-Dimethyl-N-{3-[3-(naphthylsulfonyl)-1H-indazol-5-yl]propyl}amine hydrochloride]
> 200 °C		CC1CN(Cc2ccc3[nH]nc(S(=O)(=O)c4cccc5ccccc45)c3c2)CCN1 (stereo not shown) (as salt: HCl) [Example 197]
178 to 181 °C		C[C@H]1CN(Cc2ccc3[nH]nc(S(=O)(=O)c4cccc5ccccc45)c3c2)CCN1 (as salt: HCl) [Example 199]
271 to 273 °C (dec.)		CCCCNCCOc1ccc2[nH]nc(S(=O)(=O)c3ccccc3)c2c1 (as salt: hydrochloride) [Example 7, [2-(3-Benzenesulfonyl-1H-indazol-5-yloxy)-ethyl]-butyl-amine]
92 to 94 °C		NCCCc1ccc2[nH]nc(S(=O)(=O)c3ccccc3)c2c1 (as salt: trifluoroacetate) [Example 180, {3-[3-(Phenylsulfonyl)-1H-indazol-5-yl]propyl}amine trifluoroacetate]
> 200 °C		O=S(=O)(c1cccc2ccccc12)c1n[nH]c2ccc(CN[C@H]3CCNC3)cc12 (as salt: hydrochloride) [Example 154, (3S)—N-{([3-(1-Naphthylsulfonyl)-1H-indazol-5-yl]methyl}pyrrolidin-3-amine Hydrochloride]
76 to 80 °C		CN(C)CCc1cccc2c(S(=O)(=O)c3ccccc3)n[nH]c12 (as salt: hydrochloride) [Example 171, N,N-Dimethyl-N-{2-[3-(phenylsulfonyl)-1H-indazol-7-yl]ethyl}amine hydrochloride]
120 to 125 °C		NCCCCc1ccc2[nH]nc(S(=O)(=O)c3ccccc3)c2c1 (as salt: hydrochloride) [Example 181, {4-[3-(Phenylsulfonyl)-1H-indazol-5-yl]butyl}amine hydrochloride]
248 to 250 °C (dec.)		CCNCCOc1ccc2[nH]nc(S(=O)(=O)c3ccccc3)c2c1 (as salt: hydrochloride) [Example 4, [2-(3-Benzenesulfonyl-1H-indazol-5-yloxy)-ethyl]-ethyl-amine]
184 to 185 °C (dec.)		O=S(=O)(c1ccccc1)c1n[nH]c2ccc(OCCNC3CC3)cc12 (as salt: hydrochloride) [Example 8, [2-(3-Benzenesulfonyl-1H-indazol-5-yloxy)-ethyl]-cyclopropyl-amine]
255 to 258 °C (dec.)		O=S(=O)(c1ccccc1)c1n[nH]c2ccc(OCCNC3CCCC3)cc12 (as salt: hydrochloride) [Example 9, 3-Benzenesulfonyl-5-(2-cyclopentyl-1-yl-ethoxy)-1H-indazole]
> 200 °C		O=C(c1ccc2[nH]nc(S(=O)(=O)c3cccc4ccccc34)c2c1)N1CCNCC1 (as salt: hydrochloride) [Example 202, 3-(1-Naphthylsulfonyl)-5-(piperazin-1 ylcarbonyl)-1H-indazole]
> 200 °C		CN(C)CCOCc1ccc2[nH]nc(S(=O)(=O)c3cccc4ccccc34)c2c1 (as salt: HCl) [Example 156, N,N-Dimethyl-2-{[3-(1-naphthylsulfonyl)-1H-indazol-5-yl]methoxy}ethanamine]
> 200 °C		NCCNCc1ccc2[nH]nc(S(=O)(=O)c3cccc4ccccc34)c2c1 (as salt: hydrochloride) [Example 155, N{[3-(1-Naphthylsulfonyl)-1H-indazol-5yl]methyl}ethane-1.2-diamine]
169 to 171 °C		CC(C)NCCCc1ccc2[nH]nc(S(=O)(=O)c3ccccc3)c2c1 (as salt: trifluoroacetate) [Example 179, N-Isopropyl-N-{3-[3-(phenylsulfonyl)-1H-indazol-5-yl]propyl}amine trifluoroacetate]
206 to 208 °C		CC(C)NCCOc1ccc2c(c1)c(S(=O)(=O)c1cccc3ccccc13)nn2Cc1cccc(Cl)c1 (as salt: hydrochloride) [Example 57, {2-[1-(3-Chloro-benzyl)-3-(naphthalene-1-sulfonyl)-1H-indazol-5-yloxy]-ethyl}-isopropyl-amine]
276 to 277 °C (dec.)		CCNCCOc1ccc2c(c1)c(S(=O)(=O)c1cccc3ccccc13)nn2C (as salt: hydrochloride) [Example 44, Ethyl-{2-[1-methyl-3-(naphthalene-1-sulfonyl)-1H-indazol-5-yloxy]-ethyl}-amine]
275 to 277 °C (dec.)		CC(C)NCCOc1ccc2[nH]nc(S(=O)(=O)c3ccccc3)c2c1 (as salt: hydrochloride) [Example 6, [2-(3-Benzenesulfonyl-1H-indazol-5-yloxy)-ethyl]-isopropyl-amine]
	0.01 to 10 nM	Cn1nc(S(=O)(=O)c2cccc3ccccc23)c2cccc(OCCN3CCCCC3)c21 [Example 99]
	11 to 25 nM	CCN(CC)CCOc1cc(F)cc2c(S(=O)(=O)c3cccc4ccccc34)n[nH]c12 [Example 116]
	11 to 25 nM	CN(C)CCOc1ccc2[nH]nc(S(=O)(=O)c3ccccc3)c2c1 [Example 1, [2-(3-Benzenesulfonyl-1H-indazol-5-yloxy)-ethyl]-dimethyl-amine]
	0.01 to 10 nM	CCCN(C)CCCCOc1ccc2[nH]nc(S(=O)(=O)c3cccc4ccccc34)c2c1 [Example 65]
	> 45 nM	CNCCOc1cc(OC)cc2c(S(=O)(=O)c3cccc4ccccc34)nn(Cc3cccc(Cl)c3)c12 [Example 119]

Structure (SMILES)	melting point	Ki [1]
O=S(=O)(c1cccc2ccccc12)c1n[nH]c2ccc(OCCCCN3CCCCC3)cc12 [Example 61, 3-(1-naphthylsulfonyl)-5-(4-piperidin-1-ylbutoxy)-1H-indazole]		0.01 to 10 nM
NCCOc1cccc2c(S(=O)(=O)c3ccccc3)n[nH]c12 [Example 139]		0.01 to 10 nM
NCCCCc1ccc2[nH]nc(S(=O)(=O)c3cccc4ccccc34)c2c1 [Example 189, {4-[3-(Naphthylsulfonyl)-1H-indazol-5-yl]butyl}amine hydrochloride]		0.01 to 10 nM
